What was measured:
[1] = tested on: DF6-9-9T hiPSC-derived cardiomyocytes; test: Neutral red viability assay in hiPSC-derived cardiomyocytes; assay type: cell-based; settings: 24 hour pulse treatment
Description: (§1) In Vitro Toxicity Assays: Treatment with small molecules or glucose deprivation was initiated in hESC or hiPSC at 24 and 96 h post-plating and in vitro toxicity assays were performed at specified treatment endpoints 24-96 hours after treatment initiation. […] Neutral red assays for cell viability were performed as previously described. In vitro cell death was determined using SYTOX® Green nucleic acid stain (Life Technologies). Briefly, cells were incubated in 5 μM SYTOX® Green for 30 minutes at 37° C. in a humidified cell incubator with 5% CO2. Percent cell viability was determined by normalizing to replicate cells incubated with 120 μM digitonin (Sigma-Aldrich) and 5 μM SYTOX® Green. Imaging of cell viability was performed using Live/Dead® Viability/Cytotoxicity Kit, for mammalian cells (Life Technologies). Cells were stained for 20 minutes at room temperature with 4 μM Calcein AM to detect viable cells and 2 μM Ethidium Homodimer 1 to detect cells with compromised membranes. Representative images of alterations in cell morphology were acquired on confluent hPSC 24-72 hours after treatment initiation. Imaging was performed with a Nikon Ti-U inverted microscope.

human fibroblasts = settings: treatment time extended to 72 hours; previous report [19]; cited from earlier work
ARPE-19 = test: Viability and morphology of retinal pigmented epithelial cells; assay type: cell-based
Description: Data expressed as mean+S.D. (n=4); p<0.05, **p<0.01, ***p<0.001. […] Data expressed as mean+S.D. (n=4), *p<0.05, **p<0.01, ***p<0.001.

[2] = SYTOX Green cell viability assay; assay type: cell-based, human; settings: human, hiPSC (DF6-9-9T) cells
Description: as §1

H1 hESC colonies = test: Elimination of hESC colonies grown on human fibroblast feeders (alkaline phosphatase staining, brightfield); assay type: cell-based
[3] = tested on: confluent hiPSC (DF6-9-9T); test: Bright field imaging of cell morphology; assay type: cell-based, human
Description: as §1

[4] = tested on: mesenchymal stem cells, fibroblasts, retinal pigmented epithelial cells, hiPSC-derived cardiomyocytes, specified hepatic endoderm cells, neural progenitors; assay type: cell-based; settings: 2.5 μM for 72 hours
Description: (C) Human iPSC-derived neural progenitors were treated with 2.5 μM for 72 hours and assessed by MTT assay (top; day 10 and day 12 progenitors) and immunofluorescence (bottom; day 12 progenitors shown).
Viability measurements were consistent with these visual observations. See data for cardiomyocytes, neural progenitors, and fibroblasts in FIGS. 8B-C). […] See Boheler et al., Stem Cell Reports 3, 185-203 (2014).

sub-confluent hiPSC = test: Immunoblot analysis of p-AMPK, AMPK, cleaved caspase-3 and -9; assay type: cell-based, human; settings: 2.5 μM STF-31, 30 μM WZB117
Description: Immunoblot Analysis: Non-adherent cells were collected by centrifugation, adherent cells were washed once with d-PBS and lysed in Laemmli buffer, combined with non-adherent cell pellet, and heated at 95° C. for 5 minutes. Protein concentration was measured using the Qubit protein assay (Life Technologies). 25 μg of total protein was separated by SDS-PAGE, transferred to nitrocellulose membrane (GE Healthcare Life Sciences) and blocked according to the manufacturer's instructions. Membranes were incubated overnight at 4° C. with the following dilutions of primary antibodies: rabbit anti-cleaved caspase-3 (1:500), rabbit anti-caspase-9 (1:1000), rabbit anti-phospho-AMPK (1:1000), and rabbit anti-AMPK (1:1,000) from Cell Signaling Technology, and mouse anti-GAPDH (1:10,000) from Life Technologies. Membranes were then incubated with secondary antibodies for 45 minutes at the following concentrations: donkey anti-mouse-horseradish peroxidase (1:5,000) and donkey anti-rabbit-horseradish peroxidase (1:7,000) from Jackson Immunoresearch Laboratories, Inc., followed by detection using enhanced chemiluminescence.

[5] = Neutral red cell viability assay in hiPSC; assay type: cell-based, human; settings: human, hiPSC (DF6-9-9T) cells; 72 hours after start of treatment; both confluent and sub-confluent cells; 2.5 μM; read-out: viable cells remaining
Description: (§2) Neutral red assays for cell viability were performed as previously described. In vitro cell death was determined using SYTOX® Green nucleic acid stain (Life Technologies). Briefly, cells were incubated in 5 μM SYTOX® Green for 30 minutes at 37° C. in a humidified cell incubator with 5% CO2. […] Imaging of cell viability was performed using Live/Dead® Viability/Cytotoxicity Kit, for mammalian cells (Life Technologies). Cells were stained for 20 minutes at room temperature with 4 μM Calcein AM to detect viable cells and 2 μM Ethidium Homodimer 1 to detect cells with compromised membranes. […] Imaging was performed with a Nikon Ti-U inverted microscope.

hiPSC (DF6-9-9T) = test: Neutral red cell viability assay in hiPSC; assay type: cell-based, human; settings: for LD50: 24 hour pulse treatment, viability 72 hours after treatment initiation
Description: as §2

CC(C)(C)c1ccc(S(=O)(=O)NCc2ccc(C(=O)Nc3cccnc3)cc2)cc1 [STF-31, 4-[[[[4-(1,1-Dimethylethyl)phenyl]sulfonyl]amino]methyl]-N-3-pyridinyl-benzamide]
LD50 [1]: 40 µM
LD50 cardiomyocytes relative to hiPSC [1]: 22 fold
cell viability (human fibroblasts): did not result in a decrease in cell viability
ARPE cell morphology or viability (ARPE-19; 2.5 μM for up to 72 hours): no adverse effects
toxicity (ARPE-19; short term treatment (24 hours), 2.5 μM): does not result in significant toxicity
cell viability (ARPE-19; treatment time extended to 72 hours, data not shown): did not result in a decrease in cell viability
viability at 72 h, 2.5 μM [2]: 10%
colonies by alkaline phosphatase staining (H1 hESC colonies; after 96 hours of treatment, 2.5 μM): Colonies were not detected
time at which toxicity occurs (H1 hESC colonies; hESC colonies on human fibroblast feeder cells, 2.5 μM): 48 to 72 h
colony growth after passaging (H1 hESC colonies; passaged 96 hours after treatment initiation, cultured additional 72 hours): No colony growth or alkaline phosphatase activity was detected
morphology of hiPSC ([3]; 2.5 μM STF-31, 24 hour incubation): did not modify the morphology
morphology of hiPSC ([3]; 2.5 μM STF-31, 48 hour treatment): patches of diminished, non-adherent cells and reduction in overall cell number
morphology of hiPSC ([3]; 72 hours, 2.5 μM STF-31, 30 μM WZB117, 20 μM PluriSIn): highly toxic
visible changes in morphology or cell death [4]: None of these cell types exhibited visible changes in morphology or obvious cell death
time at which cleaved caspase-3 and -9 are observed (sub-confluent hiPSC): significantly later
time at which p-AMPK is detected/increased (sub-confluent hiPSC; post-treatment): 24 h
viability at 72 h, 2.5 μM [5]: < 2%
LD50 (hiPSC (DF6-9-9T); confluent hiPSC): 1.78 µM
LD50 (hiPSC (DF6-9-9T); sub-confluent hiPSC): 1.35 µM
effect of increasing concentration on time of significant toxicity (hiPSC (DF6-9-9T); concentrations up to 100 μM, neutral red): did not accelerate the time
median lethal dose (LD50) (hiPSC (DF6-9-9T); confluent hiPSC, 48 hours after continuous treatment, neutral red): 182 nM
minimal treatment time to achieve complete toxicity of hPSC (hiPSC (DF6-9-9T); data not shown): 24 h
